This is an account of results in ChEMBL document CHEMBL3046003, “Synthesis and antifungal activities of novel 5-amino-6-arylamino-1H-pyrazolo[3,4-d]pyrimidin-4(5H)-one derivatives” (2008).

What all share (type): functional
Holding throughout (details): read-out: GI

Assay [1] has as its system Botrytis cinerea. Nature of the assay: Antifungal activity against Botryotinia fuckeliana assessed as growth inhibition at 50 mg/L.
For assay [2], the system named is Fusarium graminearum. Kind of assay: Antifungal activity against Fusarium graminearum assessed as growth inhibition at 50 mg/L.
Assay [3] concerns Sclerotinia sclerotiorum. Nature of the assay: Antifungal activity against Sclerotinia sclerotiorum assessed as growth inhibition at 50 mg/L.
For assay [4], the system named is Pyricularia oryzae. Nature of the assay: Antifungal activity against Magnaporthe oryzae assessed as growth inhibition at 50 mg/L.
Assay [5] relates to Sclerotinia sclerotiorum. Kind of assay: Antifungal activity against Sclerotinia sclerotiorum assessed as growth inhibition at 10 mg/L.
Assay [6] deals with Botrytis cinerea. Nature of the assay: Antifungal activity against Botryotinia fuckeliana assessed as growth inhibition at 10 mg/L.

Regarding `c1ccc2[nH]c(-c3cscn3)nc2c1` [THIABENDAZOLE], the inhibition of growth at 50 µg/mL in assay [1] turned out to be 100%; in assay [2], 100%; in assay [3], 100%; in assay [4] it was 87%.
As to `CSc1nn(-c2ccccc2)c2nc3n(-c4cccc(C)c4)cnn3c(=O)c12`, the inhibition of growth at 10 µg/mL in assay [5] is 73%; in assay [6], 74%. The inhibition of growth at 50 µg/mL in assay [1] was determined as 97%; in assay [2] it was 50%; in assay [3], 98%; in assay [4] it was 70%.
`CSc1nn(-c2ccccc2)c2nc3n(-c4ccc(F)cc4)cnn3c(=O)c12`: the inhibition of growth at 10 µg/mL in assay [5] is 70%; in assay [6] it was 45%. The inhibition of growth at 50 µg/mL in assay [1] came to 71%; in assay [2], 49%; in assay [3], 93%; in assay [4] it was 9%.
As for `O=c1c2c(SCc3ccccc3)nn(-c3ccccc3)c2nc2n(-c3ccccc3)cnn12`, the inhibition of growth at 10 µg/mL in assay [5] was 67%; in assay [6] it was 49%. The inhibition of growth at 50 µg/mL is 73% in assay [1], 60% in assay [2], 93% in assay [3] and 29% in assay [4].
In the case of `Nn1c(Nc2ccccc2)nc2c(c(SCc3ccccc3)nn2-c2ccccc2)c1=O`, the inhibition of growth at 10 µg/mL in assay [5] is 31%; in assay [6] it was 12%. The inhibition of growth at 50 µg/mL was found to be 60% in assay [1], 29% in assay [2], 72% in assay [3] and 50% in assay [4].
On to `CSc1nn(-c2ccccc2)c2nc3n(-c4cccc(Cl)c4)cnn3c(=O)c12`, for which the values for the inhibition of growth at 10 µg/mL in assay [5] and in assay [6] were 82% and 71%, respectively. Further, the inhibition of growth at 50 µg/mL was determined as 99% in assay [1], 74% in assay [2], 100% in assay [3] and 57% in assay [4].
In the case of `CSc1nn(-c2ccccc2)c2nc(Nc3ccc(F)cc3)n(N)c(=O)c12`, the results for the inhibition of growth at 10 µg/mL in assay [5] and in assay [6] were 72% and 9%, respectively. The inhibition of growth at 50 µg/mL in assay [1] turned out to be 45%; in assay [2] it was 20%; in assay [3], 94%; in assay [4], 43%.
On to `O=c1c2c(SCc3ccccc3)nn(-c3ccccc3)c2nc2n(-c3ccccc3F)cnn12`, for which the inhibition of growth at 10 µg/mL in assay [5] is 75%; in assay [6], 27%. The inhibition of growth at 50 µg/mL worked out at 60% in assay [1], 37% in assay [2], 96% in assay [3] and 14% in assay [4].
`CSc1nn(-c2ccccc2)c2nc(Nc3cccc(C)c3)n(N)c(=O)c12`: the inhibition of growth at 10 µg/mL in assay [5] worked out at 52%; in assay [6], 36%. The inhibition of growth at 50 µg/mL in assay [1] worked out at 71%; in assay [2] it was 46%; in assay [3], 86%; in assay [4], 14%.
Regarding `Nn1c(Nc2ccccc2F)nc2c(c(SCc3ccccc3)nn2-c2ccccc2)c1=O`, the inhibition of growth at 10 µg/mL stood at 33% in assay [5] and 18% in assay [6]. Further, the inhibition of growth at 50 µg/mL in assay [1] was found to be 64%; in assay [2], 40%; in assay [3], 71%; in assay [4], 14%.
Take `Nn1c(Nc2cccc(F)c2)nc2c(c(SCc3ccccc3)nn2-c2ccccc2)c1=O`: the inhibition of growth at 10 µg/mL in assay [5] came out at 40%; in assay [6] it was 20%. The inhibition of growth at 50 µg/mL in assay [1] was 69%; in assay [2], 46%; in assay [3], 82%; in assay [4], 14%.
As for `CSc1nn(-c2ccccc2)c2nc3n(-c4ccccc4F)cnn3c(=O)c12`, the inhibition of growth at 10 µg/mL in assay [5] was found to be 19%; in assay [6], 31%. In addition, the inhibition of growth at 50 µg/mL is 60% in assay [1], 26% in assay [2], 50% in assay [3] and 5% in assay [4].
For `CSc1nn(-c2ccccc2)c2nc(Nc3cccc(F)c3)n(N)c(=O)c12`, the inhibition of growth at 10 µg/mL in assay [5] came to 75%; in assay [6], 56%. In addition, the inhibition of growth at 50 µg/mL in assay [1] was determined as 87%; in assay [2] it was 43%; in assay [3], 96%; in assay [4], 43%.
Regarding `CSc1nn(-c2ccccc2)c2nc(Nc3ccccc3)n(N)c(=O)c12`, the inhibition of growth at 10 µg/mL in assay [5] turned out to be 51%; in assay [6] it was 3%. The inhibition of growth at 50 µg/mL was determined as 13% in assay [1], 14% in assay [2], 84% in assay [3] and 36% in assay [4].
With `CSc1nn(-c2ccccc2)c2nc(Nc3ccccc3F)n(N)c(=O)c12`, the inhibition of growth at 10 µg/mL in assay [5] is 73%; in assay [6] it was 69%. Also, the inhibition of growth at 50 µg/mL in assay [1] amounted to 93%; in assay [2], 51%; in assay [3] it was 97%; in assay [4], 62%.
With `CSc1nn(-c2ccccc2)c2nc(Nc3cccc(Cl)c3)n(N)c(=O)c12`, the inhibition of growth at 10 µg/mL was 76% in assay [5] and 73% in assay [6]. The inhibition of growth at 50 µg/mL in assay [1] worked out at 99%; in assay [2], 57%; in assay [3], 98%; in assay [4], 96%.
`CSc1nn(-c2ccccc2)c2nc3n(-c4cccc(F)c4)cnn3c(=O)c12`: the inhibition of growth at 10 µg/mL stood at 83% in assay [5] and 70% in assay [6]. Moreover, the inhibition of growth at 50 µg/mL came out at 91% in assay [1], 74% in assay [2], 100% in assay [3] and 29% in assay [4].
`Nn1c(Nc2ccc(F)cc2)nc2c(c(SCc3ccccc3)nn2-c2ccccc2)c1=O`: the inhibition of growth at 10 µg/mL in assay [5] is 52%; in assay [6], 12%. Moreover, the inhibition of growth at 50 µg/mL in assay [1] stood at 55%; in assay [2], 34%; in assay [3], 83%; in assay [4], 29%.
As for `O=c1c2c(SCc3ccccc3)nn(-c3ccccc3)c2nc2n(-c3cccc(F)c3)cnn12`, the inhibition of growth at 10 µg/mL in assay [5] and in assay [6] was 5% throughout. For the same compound, the inhibition of growth at 50 µg/mL in assay [1] stood at 29%; in assay [2] it was 34%; in assay [3], 29%; in assay [4], 0%.
Turning to `O=c1c2c(SCc3ccccc3)nn(-c3ccccc3)c2nc2n(-c3ccc(F)cc3)cnn12`, the values for the inhibition of growth at 10 µg/mL in assay [5] and in assay [6] were 32% and 30%, respectively. Also, the inhibition of growth at 50 µg/mL in assay [1] turned out to be 67%; in assay [2], 37%; in assay [3], 75%; in assay [4] it was 43%.
As for `CSc1nn(-c2ccccc2)c2nc3n(-c4ccccc4)cnn3c(=O)c12`, the inhibition of growth at 10 µg/mL in assay [5] was 83%; in assay [6], 70%. The inhibition of growth at 50 µg/mL in assay [1] was 99%; in assay [2], 66%; in assay [3] it was 100%; in assay [4] it was 80%.
